Experimental data taken from patent US20250228772A1, “DRUG DELIVERY SYSTEM COMPRISING A REFLUX INHIBITOR FOR THE APPLICATION TO ESOPHAGEAL MUCOUS MEMBRANES” (EsoCap AG, priority 2022, published 2025).

Experiments:
[1] = UV/Vis spectroscopy of film samples against a reference sample; type: physicochemical; details: PVA 18-88/glycerol film, FSG medium pH 1.2, spectrum compared with a reference sample
Protocol: Further, the film was analyzed for the content of Baclofen. To this end, 6 circular samples with a diameter of 1.9 cm (2.84 cm^2) were cut at random positions of the film and analyzed with a UV/Vis spectroscopy in FSG medium, pH 1.2. The absorption spectrum is shown in FIG. 10 in comparison to a reference sample comprising Baclofen solved in FSG medium, pH 1.2.

[2] = tested on: reflux episodes and transient lower esophageal sphincter relaxations; details: meta-analysis of nine clinical studies; cited from earlier work
[3] = tested on: transient lower esophageal sphincter relaxations; details: after systemic administration (Lidums 2000); cited from earlier work
[4] = oral administration, clinical use, 15 to 75 mg per day; cited from earlier work

stability of Baclofen in the polymer film [1]: can be stably prepared in a film
Compound: NCC(CC(=O)O)c1ccc(Cl)cc1 (stereo not drawn) [Baclofen, 4-Amino-3-(4-chlorphenyl) butyric acid]
incidence of transient lower esophageal sphincter relaxations [2]: decreased
length of reflux episodes [2]: decreased
number of reflux episodes [2]: decreased
transient lower esophageal sphincter relaxations [3]: control transient lower esophageal sphincter relaxations
tolerability / side effects [4]: poor tolerability due to severe side effects
